Measured values: patent US4451467A, “4(3H)-Quinazolinone derivatives, process for production thereof, and pharmaceutical compositions comprising said compounds” (Ishikawa; Masayuki, priority 1981, dated 1984)

What was measured:
Format in all cases: in vivo
[1] = system: normotensive dogs anesthetized with pentobarbital sodium; assay: Hypotensive effect on anesthetized dogs (intravenous); details: i.v.; for Hypotensive Effect Δ(mmHg): anesthetized dogs, mean value; for hypotensive effect in anesthetized dogs (in words): same conditions as Table II, dose under 100 μg/kg
Experimental: Groups of three to four normotensive dogs anesthetized with pentobarbital sodium were used in the experiments. The test compounds were dissolved in a minimum amount of ethanol, and the solutions were administered intravenously in the vein cannulated with a polyethylene tube. The mean blood pressures in the carotid artery were recorded using a pressure transducer and a recorder. The hypotensive effect in Table II are a mean value obtained from at least three to four experiments.

[2] = system: male spontaneously hypertensive rats (Wister Kyoto origin); assay: Hypotensive effect on conscious spontaneously hypertensive rats (oral); details: Rattus norvegicus, tail-cuff method, read-out: pD30 (dose which decreases systolic blood pressure by 30 mmHg)
Experimental: (b) Hypotensive effect on conscious spontaneously hypertensive rate
The test compounds were orally administered to groups of four to five of male spontaneously hypertensive rats (Wister Kyoto origin) weighing about 300 g and aged 15 to 20 weeks. The systolic blood pressure was measured by the tail-cuff method using a plethysmograph.

[3] = Test for acute toxicity (oral, rats); details: rat, in vivo, rats, 8 days
Excerpt: (§1) A suspension of a test compound in 0.5% CMC aqueous solution containing Tween 80 was orally administered to rats, and during 8 days the number of dead rats was counted.

[4] = system: rats; assay: Test for acute toxicity (oral, rats); details: for number of dead rats [drawing 15]: 8 days
Excerpt: as §1

With `CCOC(=O)c1c(C)cc2nc(COC(=O)NC(C)C)n(-c3ccccc3C(F)(F)F)c(=O)c2c1C` [Compound 27] the “Hypotensive Effect Δ(mmHg)” value ([1]; dose 1.0 μg/kg) was 0 mmHg, the “Hypotensive Effect Δ(mmHg)” value ([1]; dose 3.0 μg/kg) was 0 mmHg and the “Hypotensive Effect Δ(mmHg)” value ([1]; dose 10 μg/kg) was 8 mmHg. For the same compound, the “Hypotensive Effect Δ(mmHg)” value ([1]; dose 30 μg/kg) was 18 mmHg and the “Hypotensive Effect Δ(mmHg)” value ([1]; dose 100 μg/kg) was 25 mmHg.

In the case of `CCOC(=O)c1c(C)cc2nc(C)n(-c3ccccc3C(F)(F)F)c(=O)c2c1C` [6-ethoxycarbonyl-3-[2-(trifluoromethyl)phenyl]-2,5,7-trimethyl-4(3H)-quinazoline, reference compound], the “hypotensive effect in anesthetized dogs (in words)” value (“hypotensive effect … (in words)” below) [1] is reported as “did not exhibit a hypotensive effect”.

In the case of `CCOC(=O)c1c(C)cc2nc(COC(=O)N(C)C)n(-c3ccccc3Cl)c(=O)c2c1C.Cl` [Compound 3, 3-(2-chlorophenyl)-2-(N,N-dimethylcarbamoyloxymethyl)-6-ethoxy-carbonyl-5,7-dimethyl-4(3H)-quinazolinone hydrochloride], the “Hypotensive Effect Δ(mmHg)” value ([1]; dose 1.0 μg/kg) is reported as 0 mmHg, the “Hypotensive Effect Δ(mmHg)” value ([1]; dose 3.0 μg/kg) is reported as 0 mmHg and the “Hypotensive Effect Δ(mmHg)” value ([1]; dose 10 μg/kg) is reported as 1 mmHg. The “Hypotensive Effect Δ(mmHg)” value ([1]; dose 30 μg/kg) was 6 mmHg and the “Hypotensive Effect Δ(mmHg)” value ([1]; dose 100 μg/kg) was 20 mmHg.

In the case of `COc1ccc(Cc2nccc3cc(OC)c(OC)cc23)cc1OC` [papaverine, reference compound], the “hypotensive effect … (in words)” value [1] is reported as “did not exhibit a hypotensive effect”.

For `CCOC(=O)c1c(C)cc2nc(COC(=O)NC(C)C)n(-c3ccccc3F)c(=O)c2c1C` [Compound 18], the “Hypotensive Effect Δ(mmHg)” value ([1]; dose 1.0 μg/kg) was 5 mmHg, the “Hypotensive Effect Δ(mmHg)” value ([1]; dose 3.0 μg/kg) was 10 mmHg and the “Hypotensive Effect Δ(mmHg)” value ([1]; dose 10 μg/kg) was 28 mmHg.

In the case of `CCOC(=O)c1c(C)cc2c(c1C)c(=O)n(-c1ccccc1C(F)(F)F)c(=O)n2CCN(CC)CC` [6-ethoxycarbonyl-3-[2-(trifluoromethyl)phenyl]-5,7-dimethyl-1-[2-(N,N-diethylamino)ethyl]-2,4(1H,3H)-quinazolinedione, reference compound], the “hypotensive effect … (in words)” value [1] is reported as “did not exhibit a hypotensive effect”.

For `CCOC(=O)c1c(C)cc2c(c1C)c(=O)n(-c1ccccc1Cl)c(=O)n2CCN(CC)CC` [3-(2-chlorophenyl)-6-ethoxycarbonyl-5,7-dimethyl-1-(2-(N,N-diethylamino)ethyl]-2,4(1H,3H)-quinazolinedione, reference compound], the “hypotensive effect … (in words)” value [1] was “did not exhibit a hypotensive effect”.

With `CCCCNC(=O)OCc1nc2cc(C)c(C(=O)OCC)c(C)c2c(=O)n1-c1ccccc1Cl` [Compound 12] the “Hypotensive Effect Δ(mmHg)” value ([1]; dose 1.0 μg/kg) was 10 mmHg and the “Hypotensive Effect Δ(mmHg)” value ([1]; dose 3.0 μg/kg) was 25 mmHg.

With `CCCNC(=O)OCc1nc2cc(C)c(C(=O)OCC)c(C)c2c(=O)n1-c1ccccc1Cl` [Compound 10] the “Hypotensive Effect Δ(mmHg)” value ([1]; dose 1.0 μg/kg) was 10 mmHg and the “Hypotensive Effect Δ(mmHg)” value ([1]; dose 3.0 μg/kg) was 25 mmHg.

With `CCNC(=O)OCc1nc2cc(C)c(C(=O)OCC)c(C)c2c(=O)n1-c1ccccc1Cl` [Compound 9] the “Hypotensive Effect Δ(mmHg)” value ([1]; dose 1.0 μg/kg) was 22 mmHg, the “Hypotensive Effect Δ(mmHg)” value ([1]; dose 3.0 μg/kg) was 42 mmHg and the ED (30 mmHg) [2] was 0.35 mg/kg.

With `CCNC(=O)OCc1nc2cc(C)c(C(=O)OCC)c(C)c2c(=O)n1-c1ccccc1[N+](=O)[O-]` [Compound 28] the “Hypotensive Effect Δ(mmHg)” value ([1]; dose 1.0 μg/kg) was 0 mmHg, the “Hypotensive Effect Δ(mmHg)” value ([1]; dose 3.0 μg/kg) was 6 mmHg and the “Hypotensive Effect Δ(mmHg)” value ([1]; dose 10 μg/kg) was 9 mmHg. For the same compound, the “Hypotensive Effect Δ(mmHg)” value ([1]; dose 30 μg/kg) was 25 mmHg.

In the case of `CCOC(=O)c1c(C)cc2nc(C)n(-c3ccccc3Cl)c(=O)c2c1C` [3-(2-chlorophenyl)-6-ethoxycarbonyl-2,5,7-trimethyl-4(3H)-quinazolinone, reference compound], the “hypotensive effect … (in words)” value [1] is reported as “did not exhibit a hypotensive effect”.

In the case of `CCOC(=O)c1c(C)cc2nc(COC(=O)NC(C)C)n(-c3ccccc3C)c(=O)c2c1C` [Compound 23], the “Hypotensive Effect Δ(mmHg)” value ([1]; dose 1.0 μg/kg) is reported as 8 mmHg and the “Hypotensive Effect Δ(mmHg)” value ([1]; dose 3.0 μg/kg) is reported as 25 mmHg.

In the case of `CCOC(=O)c1c(C)cc2nc(COC(=O)NC(C)C)n(-c3ccccc3Cl)c(=O)c2c1C` [Compound 2, 3-(2-chlorophenyl)-6-ethoxycarbonyl-5,7-dimethyl-2-(N-isopropylcarbamoyloxymethyl)-4(3H)-quinazolinone], the “Hypotensive Effect Δ(mmHg)” value ([1]; dose 1.0 μg/kg) is reported as 24 mmHg, the “Hypotensive Effect Δ(mmHg)” value ([1]; dose 3.0 μg/kg) is reported as 48 mmHg and the ED (30 mmHg) [2] is reported as 0.42 mg/kg.

With `CCOC(=O)c1c(C)cc2nc(COC(=O)NC(C)C)n(-c3ccccc3Br)c(=O)c2c1C` [Compound 19] the “Hypotensive Effect Δ(mmHg)” value ([1]; dose 1.0 μg/kg) was 20 mmHg and the “Hypotensive Effect Δ(mmHg)” value ([1]; dose 3.0 μg/kg) was 35 mmHg.

For `CCOC(=O)c1c(C)cc2nc(COC(=O)NC)n(-c3ccccc3Cl)c(=O)c2c1C` [Compound 1, 3-(2-chlorophenyl)-6-ethoxycarbonyl-5,7-dimethyl-2-(N-methylcarbamoyloxymethyl)-4(3H)-quinazolinone], the “Hypotensive Effect Δ(mmHg)” value ([1]; dose 1.0 μg/kg) was 3 mmHg, the “Hypotensive Effect Δ(mmHg)” value ([1]; dose 3.0 μg/kg) was 6 mmHg and the “Hypotensive Effect Δ(mmHg)” value ([1]; dose 10 μg/kg) was 22 mmHg. The “Hypotensive Effect Δ(mmHg)” value ([1]; dose 30 μg/kg) was 43 mmHg, the “Hypotensive Effect Δ(mmHg)” value ([1]; dose 100 μg/kg) was 51 mmHg and the ED (30 mmHg) [2] was 2.8 mg/kg. For the same compound, the LD50 at 192 h [3] was 2500 mg/kg, the “toxicity (in words)” value ([4]; acute, rats) was “very low” and the “number of dead rats [drawing 15]” value ([4]; dose 1200 mg/Kg) was 2/6. The “number of dead rats [drawing 15]” value ([4]; dose 1715 mg/Kg) was 3/6, the “number of dead rats [drawing 15]” value ([4]; dose 2450 mg/Kg) was 3/6 and the “number of dead rats [drawing 15]” value ([4]; dose 3500 mg/Kg) was 3/6. For the same compound, the “number of dead rats [drawing 15]” value ([4]; dose 5000 mg/Kg) was 5/6.

For `CCOC(=O)c1c(C)cc2nc(COC(=O)NC(C)(C)C)n(-c3ccccc3Cl)c(=O)c2c1C` [Compound 14], the “Hypotensive Effect Δ(mmHg)” value ([1]; dose 1.0 μg/kg) was 8 mmHg, the “Hypotensive Effect Δ(mmHg)” value ([1]; dose 3.0 μg/kg) was 10 mmHg and the “Hypotensive Effect Δ(mmHg)” value ([1]; dose 10 μg/kg) was 25 mmHg.
